Read-outs that look alike come from different tables or passages of the source.
How the values were obtained:
[1] = target: PIM-1 (Homo sapiens (Human), UniProt P11309); assay: PIM-1 biochemical assay (ADP Hunter)
[2] = target: PIM-3 (Homo sapiens (Human), UniProt Q86V86); assay: PIM-3 biochemical assay (ADP Hunter); conditions: semi-quantitative; read-out: PIM3 IC50
[3] = target: PIM-2 (Homo sapiens (Human), UniProt Q9P1W9); assay: PIM-2 biochemical assay (ADP Hunter); conditions: semi-quantitative; read-out: PIM2 IC50
Source text: The biochemical assay to measure PIM-2 activity relies on the ADP Hunter assay kit (DiscoveRx Corp., Cat. #90-0077), that determines the amount of ADP as direct product of the kinase enzyme activity.

[4] = read-out: PIM1 IC50, semi-quantitative

PIM-1, sequence (P11309 whole entry): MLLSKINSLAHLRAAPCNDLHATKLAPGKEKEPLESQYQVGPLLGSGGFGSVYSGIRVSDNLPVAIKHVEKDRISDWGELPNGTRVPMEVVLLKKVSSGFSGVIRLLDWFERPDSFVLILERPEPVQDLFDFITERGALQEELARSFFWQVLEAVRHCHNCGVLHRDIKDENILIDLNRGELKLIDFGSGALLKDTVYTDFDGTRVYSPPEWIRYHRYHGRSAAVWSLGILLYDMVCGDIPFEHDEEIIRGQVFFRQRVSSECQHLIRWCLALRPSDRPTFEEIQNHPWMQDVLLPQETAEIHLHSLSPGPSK
PIM-2, sequence (Q9P1W9 whole entry): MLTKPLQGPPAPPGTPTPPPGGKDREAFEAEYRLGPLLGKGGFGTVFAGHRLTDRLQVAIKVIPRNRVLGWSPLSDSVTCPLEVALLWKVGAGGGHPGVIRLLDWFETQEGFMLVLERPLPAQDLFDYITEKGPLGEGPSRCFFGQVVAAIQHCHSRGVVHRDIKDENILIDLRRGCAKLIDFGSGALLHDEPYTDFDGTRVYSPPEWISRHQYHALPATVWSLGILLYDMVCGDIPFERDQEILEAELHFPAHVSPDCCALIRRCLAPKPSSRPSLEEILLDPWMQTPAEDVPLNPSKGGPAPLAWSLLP

Compound | IC50 [1, 4] | IC50 [2] | IC50 [1] | IC50 [3]
CN1CCOc2c1c(NCC1CCC(O)CC1)nn1c(-c3cccc(OC(F)(F)F)c3)nnc21 (stereo not drawn) [Example 43, 4-{[6-Methyl-3-(3-trifluoromethoxy-phenyl)-7,8-dihydro-6H-9-oxa-1,2,3a,4,6-pentaaza-cyclopenta[a]naphthalen-5-ylamino]-methyl}-cyclohexanol] | < 100 nM | < 100 nM | – | –
CN1CCOc2c(NC3CCNCC3)nn3c(-c4cccc(OC(F)(F)F)c4)nnc3c21 [Example 47, [9-Methyl-3-(3-trifluoromethoxy-phenyl)-8,9-dihydro-7H-6-oxa-1,2,3a,4,9-pentaaza-cyclopenta[a]naphthalen-5-yl]-piperidin-4-yl-amine] | – | – | 100 to 1000 nM | > 1000 nM
COc1ccc(-c2nnc3c4c(c(NCC5CCN(C(=O)OC(C)(C)C)CC5)nn23)N(C)CCO4)cc1 [Example 51, 4-{[3-(4-Methoxy-phenyl)-6-methyl-7,8-dihydro-6H-9-oxa-1,2,3a,4,6-pentaaza-cyclopenta[a]naphthalen-5-ylamino]-methyl}-piperidine-1-carboxylic acid tert-butyl ester] | > 1000 nM | – | – | > 1000 nM
CN1CCOc2c(NCC34CCN(CC3)C4)nn3c(-c4cccc(OC(F)(F)F)c4)nnc3c21 [Example 53, (1-Aza-bicyclo[2.2.1]hept-4-ylmethyl)-[9-methyl-3-(3-trifluoromethoxy-phenyl)-8,9-dihydro-7H-6-oxa-1,2,3a,4,9-pentaaza-cyclopenta[a]naphthalen-5-yl]-amine] | – | – | 100 to 1000 nM | > 1000 nM
CN1CCOc2c1c(N1CCC(CN)CC1)nn1c(-c3cccc(OC(F)(F)F)c3)nnc21 [Example 55, C-{1-[6-Methyl-3-(3-trifluoromethoxy-phenyl)-7,8-dihydro-6H-9-oxa-1,2,3a,4,6-pentaaza-cyclopenta[a]naphthalen-5-yl]-piperidin-4-yl}-methylamine] | < 100 nM | < 100 nM | – | –
CN1CCOc2c1c(N1CCCC3(CCCN3C)CC1)nn1c(-c3cccc(OC(F)(F)F)c3)nnc21 (stereo not drawn) [Example 61, 6-Methyl-5-(1-methyl-1,8-diaza-spiro[4.6]undec-8-yl)-3-(3-trifluoromethoxy-phenyl)-7,8-dihydro-6H-9-oxa-1,2,3a,4,6-pentaaza-cyclopenta[a]naphthalene] | < 100 nM | – | – | 100 to 1000 nM
CNCC1CCN(c2nn3c(-c4cccc(OC(F)(F)F)c4)nnc3c3c2N(C)CCO3)CC1 [Example 63, Methyl-{1-[6-methyl-3-(3-trifluoromethoxy-phenyl)-7,8-dihydro-6H-9-oxa-1,2,3a,4,6-pentaaza-cyclopenta[a]naphthalen-5-yl]-piperidin-4-ylmethyl}-amine] | < 100 nM | – | – | < 100 nM
CN1CCOc2c1c(N1CCCC3(CCNCC3)C1)nn1c(-c3cccc(OC(F)(F)F)c3)nnc21 [Example 68, 5-(2,9-Diaza-spiro[S5.5]undec-2-yl)-6-methyl-3-(3-trifluoromethoxy-phenyl)-7,8-dihydro-6H-9-oxa-1,2,3a,4,6-pentaaza-cyclopenta[a]naphthalene] | < 100 nM | – | – | < 100 nM
CN1CCC(CNc2nn3c(-c4cccc(OC(F)(F)F)c4)nnc3c3c2N(C)C(C)(C)CO3)CC1 [Example 73, (1-Methyl-piperidin-4-ylmethyl)-[6,7,7-trimethyl-3-(3-trifluoromethoxy-phenyl)-7,8-dihydro-6H-9-oxa-1,2,3a,4,6-pentaaza-cyclopenta[a]naphthalen-5-yl]-amine] | < 100 nM | – | – | 100 to 1000 nM

Next, values leading:

IC50 [1, 4] | IC50 [2] | IC50 [1] | IC50 [3] | Compound
– | – | 100 to 1000 nM | > 1000 nM | CN1CCOc2c1c(NCC1CCN(C(=O)OC(C)(C)C)CC1)nn1c(-c3cccc(OC(F)(F)F)c3)nnc21 [Example 79, 4-{[6-Methyl-3-(3-trifluoromethoxy-phenyl)-7,8-dihydro-6H-9-oxa-1,2,3a,4,6-pentaaza-cyclopenta[a]naphthalen-5-ylamino]-methyl}-piperidine-1-carboxylic acid tert-butyl ester]
> 1000 nM | – | – | > 1000 nM | COc1ccc(-c2nnc3c4c(c(NCc5ccc(F)cc5)nn23)OCCN4C)cc1 [Example 80, (4-Fluoro-benzyl)-[3-(4-methoxy-phenyl)-9-methyl-8,9-dihydro-7H-6-oxa-1,2,3a,4,9-pentaaza-cyclopenta[a]naphthalen-5-yl]-amine]
– | – | 100 to 1000 nM | > 1000 nM | CN1CCOc2c(N3CC4(CCNCC4)C3)nn3c(-c4cccc(OC(F)(F)F)c4)nnc3c21 [Example 83, 5-(2,7-Diaza-spiro[3.5]non-2-yl)-9-methyl-3-(3-trifluoromethoxy-phenyl)-8,9-dihydro-7H-6-oxa-1,2,3a,4,9-pentaaza-cyclopenta[a]naphthalene]
– | – | 100 to 1000 nM | > 1000 nM | CN1CCC(CNc2nn3c(-c4ccc(O)cc4)nnc3c3c2N(C)CCO3)CC1 [Example 84, 4-{6-Methyl-5-[(1-methyl-piperidin-4-ylmethyl)-amino]-7,8-dihydro-6H-9-oxa-1,2,3a,4,6-pentaaza-cyclopenta[a]naphthalen-3-yl}-phenol]
> 1000 nM | – | – | > 1000 nM | COc1ccc(-c2nnc3c4c(c(N5CCC(CNC(C)=O)CC5)nn23)N(C)CCO4)cc1 [Example 92, N-{1-[3-(4-Methoxy-phenyl)-6-methyl-7,8-dihydro-6H-9-oxa-1,2,3a,4,6-pentaaza-cyclopenta[a]naphthalen-5-yl]-piperidin-4-ylmeth I}-acetamide]
< 100 nM | – | 100 to 1000 nM | > 1000 nM | CN1CCN(C)c2c1c(NCc1ccc(F)cc1)nn1c(-c3ccc(O)cc3)nnc21 [Example 94, 4-[5-(4-Fluoro-benzylamino)-6,9-dimethyl-6,7,8,9-tetrahydro-1,2,3a,4,6,9-hexaaza-cyclopenta[a]naphthalen-3-yl]-phenol]
> 1000 nM | – | – | > 1000 nM | CC(=O)N1CCN(CCNc2nn3c(-c4cccc(OC(F)(F)F)c4)nnc3c3c2OCCN3C)CC1 [Example 95, 1-(4-{2-[9-Methyl-3-(3-trifluoromethoxy-phenyl)-8,9-dihydro-7H-6-oxa-1,2,3a,4,9-pentaaza-cyclopenta[a]naphthalen-5-ylamino]-ethyl}-piperazin-1-yl)-ethanone]
– | – | 100 to 1000 nM | > 1000 nM | CN1CCOc2c(NCCN3CCN(S(C)(=O)=O)CC3)nn3c(-c4cccc(OC(F)(F)F)c4)nnc3c21 [Example 96, [2-(4-Methanesulfonyl-piperazin-1-yl)-ethyl]-[9-methyl-3-(3-trifluoromethoxy-phenyl)-8,9-dihydro-7H-6-oxa-1,2,3a,4,9-pentaaza-cyclopenta[a]naphthalen-5-yl]-amine]
< 100 nM | – | – | < 100 nM | FC(F)(F)Oc1cccc(-c2nnc3c4c(c(NCC5CC5)nn23)OCCO4)c1 [Example 102, Cyclopropylmethyl-[3-(3-trifluoromethoxy-phenyl)-7,8-dihydro-6,9-dioxa-1,2,3a,4-tetraaza-cyclopenta[a]naphthalen-5-yl]-amine]
< 100 nM | – | – | > 1000 nM | CN1CCOc2c1c(NCC1CC[N+](C)([O-])CC1)nn1c(-c3cccc(OC(F)(F)F)c3)nnc21 (stereo not drawn) [Example 103, (1-Methyl-1-oxy-pipe-din-4-ylmethyl)-[6-methyl-3-(3-trifluoromethoxy-phenyl)-7,8-dihydro-6H-9-oxa-1,2,3a,4,6-pentaaza-cyclopenta[a]naphthalen-5-yl]-amine]
